Values of other authors as cited in patent US20250144122A1, “Scent-Changing Ointment & Method of Making The Same” (priority 2023, published 2025).

What was measured:
[1] = in vivo
[2] = topical application, 3.5% gel

CC1CC[C@H](C(C)C)[C@@H](O)C1 (stereo partly shown) [(d)-menthol]
analgesic effect (pain threshold) [1]: completely devoid of any analgesic effect

CC(C)[C@@H]1CC[C@@H](C)C[C@H]1O [(l)-menthol]
analgesic effect (pain threshold) [1]: able to increase pain threshold

CC1CCC(C(C)C)C(O)C1 (stereo not shown) [menthol, Menthol]
blood flow remains reduced ([2]; at 10 minutes after application): 20%
reduces blood flow ([2]; within 60 seconds of application): 35%
